Measurements reported in patent US20220249535A1, “COMPOSITIONS COMPRISING NICOTINAMIDE ADENINE DINUCLEOTIDE-RELATED COMPOUNDS AND USE THEREOF” (Rejuvenation Therapeutics, priority 2019, published 2022).

Legend:
NAD+ levels in the blood = assay: Blood NAD+ level in subjects during daily oral dosing (Example 1); type: in vivo, human
Method: Study Design • In this study, safety, pharmacokinetics, and pharmacodynamics of NAM, NA, NMN, and NR were studied. Before receiving the first oral dose of NAM, NA, NMN, and NR formulated as a dietary supplement, but after screening and informed consent, eligible subjects underwent blood and urine samplings on Day 1 to establish baseline levels of NAD+ and other compounds. Subsequently, each subject received one of the following dosages: • 1. daily doses of 1000 mg NR for 7 days: • 2. daily doses of NR 300 mg for 14 days and then added NAM 1000 mg for 7 days; • 3. daily doses of 300 mg NR for 7 days; • 4. daily doses of 1000 mg NAD+ for 7 days; • 5. daily doses of 1000 mg NAM for 14 days: • 6. daily doses of 300 mg NA for 14 days: • 7. daily doses of 1000 mg NMN for 7 days: • 8. daily doses of NAM, NA, NMN, and NR, one at a time, including 300 mg NA and 300 mg NR for 11 days followed by 300 mg NA, 300 mg NR, and 1000 mg NAM for 11 days; • 9. daily doses of 300 mg NR and 1000 mg NAM for 9 days; • 10. daily doses of NAM, NA, and NR, one at a time, including 300 mg NA and 300 mg NR for 11 days followed by 300 mg NA, 300 mg NR, and 1000 mg NAM for 11 days. • Each subject underwent serial blood and urine sampling during the daily dosing of NAM, NA, NMN, and NR, or a mixture of the foregoing.
Inclusion Criteria: • 1. Healthy male or female, age>18 years. • 2. Signed, informed consent. • 3. […] Healthy as determined by laboratory results and medical history. • 5. Agrees to maintain current level of physical activity throughout the study. • 6. Agrees to avoid study compounds for 30 days prior to enrollment and during the study 7. • 7. Agrees to avoid nutritional yeast, whey proteins, energy drinks, pomegranate, pomegranate juice, grapefruit, grapefruit juice and alcohol 7 days prior to enrollment and during study • 8. Willingness and ability to comply with scheduled visits, cell phone calls, treatment plans, laboratory tests, and completion of other study procedures as specified in the protocol.
Exclusion Criteria: • 1. Women who were pregnant, breastfeeding, or planning to became pregnant during the course of the trial. • 2. Subjects who were smokers • 3. Unstable medical conditions as determined by the Investigator • 4. Immunocompromised individuals such as subjects that had undergone organ transplantation or subjects diagnosed with human immunodeficiency virus (HIV) • 5. Clinically significant abnormal lab results at screening (e.g., AST, ALT or ALP>2×ULN, and/or bilirubin>1×ULN) • 6. Subjects who had planned surgery during the course of the trial • 7. History of or current diagnosis of any cancer (except for successfully treated basal cell carcinoma) diagnosed less than 5 years prior to screening. Subjects with cancer in full remission more than 5 years after diagnosis were acceptable • 8. History of blood/bleeding disorders • 9. Blood donation in the past 2 months • 10. Alcohol abuse (>2 standard alcoholic drinks per day) or drug abuse within the past 6 months • 11. Participation in a clinical research trial within 30 days prior to randomization • 12. Allergy or sensitivity to study supplement ingredients provided during the study • 13. Individuals who were cognitively impaired and/or who were unable to give informed consent. • 14. Any other condition which in the Investigator's opinion may adversely affect the subject's ability to complete the study or its measures or which may pose significant risk to the subject
Clinical Data and Sample Collections • 1. Height, weight, temperature, BP, heart rate, demographics • 2. Physical examination • 3. Medical history, concomitant dietary supplements (if any) and concomitant medications (if any) • 4.

[1] = compared with NAM; cited from earlier work
[2] = after NMN supplementation; through the liver and bloodstream intact into muscle; cited from earlier work
[3] = murine plasma or fetal-bovine-serum containing culture medium; cited from earlier work

Compound	NAD+ level in response to intake (NAD+ levels in the blood; 300 mg daily for 14 days)	NAD+ level in response to intake (NAD+ levels in the blood; 1000 mg daily for 7 days)	other results
O=C(O)c1cccnc1 [NA, nicotinic acid]	increasing NAD+ levels	–	–
NC(=O)c1cccnc1 [NAM, nicotinamide]	–	–	NAD+ level in response to intake (NAD+ levels in the blood; 1000 mg daily for 14 days): increasing NAD+ levels
NC(=O)c1ccc[n+]([C@@H]2O[C@H](COP(=O)([O-])O)[C@@H](O)[C@H]2O)c1 [NMN, nicotinamide mononucleotide]	–	increasing NAD+ levels	Retention in the body [1]: retained in the body for longer than NAM; Time to metabolism to NAD+ [2]: ≤ 30 min
NC(=O)c1ccc[n+]([C@@H]2O[C@H](CO)[C@@H](O)[C@H]2O)c1 [NR, nicotinamide riboside]	increasing NAD+ level	increasing NAD+ levels	Stability [3]: can quickly degrade into NAM
Nicotinamide adenine dinucleotide [NAD+]	–	increasing NAD+ level	NAD+ level in response to intake (NAD+ levels in the blood; 1000 mg daily for 7 days, listed as NAD): increasing NAD+ levels
